What all share (format): cell-based, human
One test relates to A549-MCTSs. Briefly: 3D-A549-MCTS viability (PrestoBlue). As to conditions: 72 h, PrestoBlue, poly-HEMA coated wells. The protocol: To obtain multiple spheroids, 10.0×10^4 A549 cells were seeded in non-adherent conditions on poly-HEMA coated 96 wells (final volume, 200 μL) for four days. After drug treatment (72 h), the cell viability was determined using PrestoBlue Cell Viability Reagent (Thermo Fisher Scientific, Frederick, MD, USA) (See: Casagrande, N.; Celegato, M.; Borghese, C.; Mongiat, M.; Colombatti, A.; Aldinucci, D. Preclinical Activity of the Liposomal Cisplatin Lipoplatin in Ovarian Cancer. Clin Cancer Res 2014, 20, 5496-5506, which is incorporated herein by reference in its entirety).
3D-MCTSs are a model for in vitro drug testing (See: Zanoni, M.; Piccinini, F.; Arienti, C.; Zamagni, A.; Santi, S.; Polico, R.; Bevilacqua, A.; Tesei, A. 3D Tumor Spheroid Models for in Vitro Therapeutic Screening: A Systematic Approach to Enhance the Biological Relevance of Data Obtained. Sci Rep 2016, 6, 19103, which is incorporated herein by reference in its entirety) and to test drug tissue penetration. Thus, the effects of complex 3 in A549-MCTSs were determined by cultivating tumor cells in non-adherent conditions on poly-HEMA coated wells. […] Representative micro-photographs of A549-MCTSs treated with complex 3 (0.3-5 μM) and with cisplatin (15-250 μM) are shown in FIG. 9C.

The next test relates to BAX. Briefly: BAX expression, flow cytometry. The settings on record: A549, 72 h. The protocol: (§1) 2.0×10^5 A549 cells were seeded in 6-well plates in a complete medium and treated with the complex 3. Assay results were detected by flow cytometry on a BD FACSCanto II flow cytometer. Data were analyzed using BD FACSDiva v.8.0.1 software (BD Biosciences) unless otherwise indicated. Tumor cells were treated for 72 h with complex 3, then stained for 15 minutes with FITC Annexin-V (Thermo Fisher Scientific) and 7AAD (BD Pharmingen, Milan, Italy). Activated caspase-3,7 was detected using the CaspaTag Caspase-3,7 assay (Merck Millipore) after an incubation of 24 h with complex 3. For B-cell lymphoma/leukemia-2 protein (Bcl-2) and Bcl-2 associated x protein (Bax) analysis, cells were treated for 72 h with C3, then fixed and permeabilized (FIX & PERM Cell Fixation & Cell Permeabilization Kit, Life Technologies). […] The distribution of cells in different cell cycle phases was quantified using ModFit LT 4.0 software (Verity Software House, Topsham, ME, USA) (See: Sulaiman, A. A. A.; Casagrande, N.; Borghese, C.; Corona, G.; Isab, A. A.; Ahmad, S.; Aldinucci, D.; Altaf M. Design, Synthesis, and Preclinical Activity in Ovarian Cancer Models of New Phosphanegold(I)—N-Heterocyclic Carbene Complexes. J Med Chem 2022, 65, 14424-14440, which is incorporated herein by reference in its entirety). […]
For orientation: In flow cytometry, cells or beads pass a laser one at a time.

Another test concerns CD133. Briefly: CD133 surface expression, flow cytometry. As to conditions: A549, 24 h. The protocol: as §1

One may read the IC50 as the point on the concentration scale where inhibition reaches its midpoint. The low end stands for inhibition by little substance, the high end for a need for much substance.

With `CC(C)c1cccc(C(C)C)c1-n1ccn(-c2c(C(C)C)cccc2C(C)C)[c]1=[Au-][P+](CCNCC[P+]([Au-]=[c]1n(-c2c(C(C)C)cccc2C(C)C)ccn1-c1c(C(C)C)cccc1C(C)C)(C1CCCCC1)C1CCCCC1)(C1CCCCC1)C1CCCCC1` [Complex 3, [(Au(IPr))2(C28H24P2)](PF6)2], in the test with A549-MCTSs, the half-inhibitory concentration (IC50) worked out at 950 nM. For the same compound, the “pro-apoptotic BAX expression” value in the test on BAX is “induced”. For the same compound, the CD133 expression levels result in the test with CD133 is listed as “reduced”.
